Experimental data taken from patent US8293773B2, “1, 2, 3-triazole derivatives as new cannabinoid-1 receptor antagonists” (National Tsing Hua University, priority 2008, dated 2012).

Columns and labels:
human CB2 receptor = target: T1, human CB2 receptor (Homo sapiens, UniProt P34972); test: competitive radioligand binding assay, displacement of [3H]CP55,940, CB2
T1 construct: expressed in transfected cells; membrane-enriched fractions
Description: (§1) In addition, the affinity of test compounds of this invention toward CB1 and CB2 receptors was determined by competitive radioligand binding assays in vitro. This method differentiates the binding strength between compounds by their abilities in displacing a receptor-specific radioactive ligand. […] The readings of the radioactivity retained allow further analysis of receptor binding, and assist in predictions of the pharmacological activities of the test compounds.
(§2) In the assays, CB1 receptors are from human CB1 stably expressed cell lines, and CB2 receptors are from human CB2 stably expressed cell lines. For purification of membrane-enriched fractions, cells were scraped off from the culture dishes in ice-cold buffer A (50 mM Tris, 5 mM MgCl2, 2.5 mM EDTA, pH 7.4, 10% sucrose) with 1 mM PMSF. After sonication, the membrane-enriched fractions were centrifuged for 15 minutes at 2,000×g at 4° C. The supernatant was centrifuged again for 30 minutes at 43,000×g at 4° C. The final pellet was re-suspended in buffer A and stored at −80° C. The protein concentration of the purified membrane was determined by the Bradford method as described by the manual provided by Bio-Rad Laboratories, Inc., Hercules, Calif.
(§3) During the receptor binding experiments, 0.2˜8 μg of membrane fractions were incubated with 0.75 nM [^3H]CP55,940 and a test compound in the incubation buffer of 50 mM Tris-HCl, 5 mM MgCl2, 1 mM EDTA, 0.3% BSA, pH 7.4. The non-specific binding was determined by using 1 μM of CP55,940. The mixture was incubated for 1.5 hours at 30° C. in Multiscreen microplates (Millipore, Billerica, Mass.). At the completion of the incubation, the reaction was terminated by Manifold filtration and washed with ice-cold wash buffer (50 mM Tris, pH 7.4, 0.25% BSA) four times. The radioactivity bound to the filters was measured by Topcount (Perkin Elmer Inc.).

human CB1 receptor = target: T2, human CB1 receptor (Homo sapiens, UniProt P21554); test: competitive radioligand binding assay, displacement of [3H]CP55,940, CB1; settings: for IC50: displacement of specific [3H]-CP55940 binding in HEK 293 cells stably transfected with human CB1 receptor
T2 construct: expressed in transfected cells; membrane-enriched fractions
T2 sequence (P21554 whole entry): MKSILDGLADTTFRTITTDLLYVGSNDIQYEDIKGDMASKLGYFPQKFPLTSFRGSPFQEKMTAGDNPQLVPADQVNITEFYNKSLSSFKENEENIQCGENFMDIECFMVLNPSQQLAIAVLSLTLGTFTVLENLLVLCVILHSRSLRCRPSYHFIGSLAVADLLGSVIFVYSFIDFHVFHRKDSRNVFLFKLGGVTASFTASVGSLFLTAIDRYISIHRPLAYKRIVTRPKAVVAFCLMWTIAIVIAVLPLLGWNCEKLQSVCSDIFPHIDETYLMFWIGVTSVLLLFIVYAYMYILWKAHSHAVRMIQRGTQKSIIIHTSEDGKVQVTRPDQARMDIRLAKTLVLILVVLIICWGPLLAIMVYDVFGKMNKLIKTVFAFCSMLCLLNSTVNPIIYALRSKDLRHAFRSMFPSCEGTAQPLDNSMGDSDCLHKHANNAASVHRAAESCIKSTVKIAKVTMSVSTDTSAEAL
Description: as §1, §2, §3

[1] = Table 2, percent inhibition at 10 μM

T1 sequence (P34972 whole entry): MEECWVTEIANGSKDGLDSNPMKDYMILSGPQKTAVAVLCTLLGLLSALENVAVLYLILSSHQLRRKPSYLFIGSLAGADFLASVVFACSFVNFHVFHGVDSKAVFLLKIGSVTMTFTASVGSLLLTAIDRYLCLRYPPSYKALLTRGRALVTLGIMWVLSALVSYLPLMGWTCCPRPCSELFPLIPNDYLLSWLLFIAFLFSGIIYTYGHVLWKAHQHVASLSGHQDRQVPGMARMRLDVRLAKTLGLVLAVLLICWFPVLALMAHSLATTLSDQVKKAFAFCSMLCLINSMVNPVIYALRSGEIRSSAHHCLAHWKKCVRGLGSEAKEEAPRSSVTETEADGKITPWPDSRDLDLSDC

IC50 (human CB2 receptor; cells printed in μM) [µM] | inhibition at 10 µM (human CB1 receptor; [1]) [%] | IC50 (human CB1 receptor) [nM] | IC50 (human CB2 receptor; human CB2 stably expressed cell line membranes) [µM] | CB1 Inhibition (%) (10 μM) (human CB1 receptor; Table 2, percent inhibition at 10 μM, 10 µM) | Structure (SMILES)
> 10 | 90.3 | 1170 ± 263 | – | – | CCCCOC(=O)Cn1nc(-c2ccc(Cl)cc2Cl)c(-c2ccc(Cl)cc2Cl)n1 [Compound 111]
– | 93.7 | – | 5.9 ± 0.764 | – | O=C(Cn1nc(-c2ccc(Cl)cc2Cl)c(-c2ccc(Cl)cc2Cl)n1)N1CCCCC1 [Compound 120]
> 10 | 99.3 | 66.9 ± 8.9 | – | – | O=C(Cn1nc(-c2ccc(Cl)cc2Cl)c(-c2ccc(Cl)cc2Cl)n1)NCc1ccccc1 [Compound 122]
> 10 | – | 144 ± 110 | – | 91.40 | O=C(Cn1nc(-c2ccc(Cl)cc2Cl)c(-c2ccc(Cl)cc2Cl)n1)NC1CCCCC1 [Compound 125]
– | 76.1 | 1850 ± 1380 | – | – | O=C(Cn1nc(-c2ccc(Cl)cc2)c(-c2ccc(Cl)cc2Cl)n1)NN1CCCCC1 [Compound 142]
– | 80 | 789 ± 202 | – | – | C[C@H](NC(=O)Cn1nc(-c2ccc(Cl)cc2)c(-c2ccc(Cl)cc2Cl)n1)C(O)(c1ccccc1)c1ccccc1 [Compound 143]
– | 89.5 | 140 ± 63.1 | – | – | CC(C)[C@H](NC(=O)Cn1nc(-c2ccc(Cl)cc2)c(-c2ccc(Cl)cc2Cl)n1)C(O)(c1ccccc1)c1ccccc1 [Compound 144]
– | 95 | 252 ± 75.1 | – | – | Cc1ccc(CNC(=O)Cn2nc(-c3ccc(Cl)cc3Cl)c(-c3ccc(Cl)cc3Cl)n2)cc1 [Compound 145]
> 10 | 94.8 | 81.9 ± 44.2 | – | – | COc1ccc(CNC(=O)Cn2nc(-c3ccc(Cl)cc3Cl)c(-c3ccc(Cl)cc3Cl)n2)cc1 [Compound 146]
> 10 | 99.5 | 251 ± 88.1 | – | – | O=C(Cn1nc(-c2ccc(Cl)cc2Cl)c(-c2ccc(Cl)cc2Cl)n1)Nc1ccccc1 [Compound 147]
– | 94.5 | 592 ± 302 | – | – | Cc1ccccc1CNC(=O)Cn1nc(-c2ccc(Cl)cc2)c(-c2ccc(Cl)cc2Cl)n1 [Compound 148]
– | 78.2 | 684 ± 428 | – | – | COc1ccc(CNC(=O)Cn2nc(-c3ccc(Cl)cc3)c(-c3ccc(Cl)cc3Cl)n2)cc1 [Compound 149]
– | 91.4 | 704 ± 283 | – | – | O=C(Cn1nc(-c2ccc(Cl)cc2)c(-c2ccc(Cl)cc2Cl)n1)NCc1ccc(Cl)cc1 [Compound 150]
– | 61.8 | 5970 ± 2600 | – | – | O=C(Cn1nc(-c2ccc(Cl)cc2)c(-c2ccc(Cl)cc2Cl)n1)NCc1cccc2c1OCO2 [Compound 151]
– | 90.5 | 711 ± 175 | – | – | O=C(Cn1nc(-c2ccc(Cl)cc2)c(-c2ccc(Cl)cc2Cl)n1)NCc1ccc(Cl)cc1Cl [Compound 152]
– | 87 | 1060 ± 656 | – | – | O=C(Cn1nc(-c2ccc(Cl)cc2)c(-c2ccc(Cl)cc2Cl)n1)NCc1ccc(Cl)c(Cl)c1 [Compound 153]
– | 95.2 | 772 ± 446 | – | – | CC(NC(=O)Cn1nc(-c2ccc(Cl)cc2)c(-c2ccc(Cl)cc2Cl)n1)c1ccccc1 (centres unmarked) [Compound 154]
– | 85 | 473 ± 300 | – | – | Cc1cccc(CNC(=O)Cn2nc(-c3ccc(Cl)cc3)c(-c3ccc(Cl)cc3Cl)n2)c1 [Compound 155]
– | 69.5 | – | – | – | COc1cccc(CNC(=O)Cn2nc(-c3ccc(Cl)cc3)c(-c3ccc(Cl)cc3Cl)n2)c1 [Compound 156]
– | 95.2 | 217 ± 86.6 | – | – | O=C(Cn1nc(-c2ccc(Cl)cc2)c(-c2ccc(Cl)cc2Cl)n1)NCc1ccc(F)cc1F [Compound 157]
– | 92.5 | 302 ± 132 | – | – | O=C(Cn1nc(-c2ccc(Cl)cc2)c(-c2ccc(Cl)cc2Cl)n1)NCc1ccccc1C(F)(F)F [Compound 158]

IC50 (human CB2 receptor; cells printed in μM) [µM] | inhibition at 10 µM (human CB1 receptor; [1]) [%] | IC50 (human CB1 receptor) [nM] | IC50 (human CB2 receptor; human CB2 stably expressed cell line membranes) [µM] | CB1 Inhibition (%) (10 μM) (human CB1 receptor; Table 2, percent inhibition at 10 μM, 10 µM) | Structure (SMILES)
– | 87.3 | 365 ± 160 | – | – | O=C(Cn1nc(-c2ccc(Cl)cc2)c(-c2ccc(Cl)cc2Cl)n1)NCc1ccccc1Cl [Compound 159]
> 10 | 88.2 | 262 ± 184 | – | – | O=C(Cn1nc(-c2ccc(Cl)cc2)c(-c2ccc(Cl)cc2Cl)n1)NCc1ccccc1F [Compound 160]
– | 87.7 | 529 ± 144 | – | – | O=C(Cn1nc(-c2ccc(Cl)cc2)c(-c2ccc(Cl)cc2Cl)n1)NCc1cccc(F)c1 [Compound 161]
> 10 | 90.5 | 449 ± 67.9 | – | – | O=C(Cn1nc(-c2ccc(Cl)cc2)c(-c2ccc(Cl)cc2Cl)n1)NCc1ccc(F)cc1 [Compound 162]
– | 76.6 | 2070 ± 186 | – | – | O=C(Cn1nc(-c2ccc(Cl)cc2)c(-c2ccc(Cl)cc2Cl)n1)NC1CCc2ccccc21 (centres unmarked) [Compound 163]
– | 82.1 | 2830 ± 378 | – | – | COc1ccc(CNC(=O)Cn2nc(-c3ccc(Cl)cc3)c(-c3ccc(Cl)cc3Cl)n2)cc1OC [Compound 164]
> 10 | 89.8 | 152 ± 71 | – | – | O=C(Cn1nc(-c2ccc(Cl)cc2)c(-c2ccc(Cl)cc2Cl)n1)NCc1cc(F)ccc1F [Compound 165]
– | 88.3 | – | – | – | O=C(Cn1nc(-c2ccc(Cl)cc2)c(-c2ccc(Cl)cc2Cl)n1)NCc1ccc(F)c(F)c1 [Compound 166]
– | 92.1 | – | – | – | CC1CCC(NC(=O)Cn2nc(-c3ccc(Cl)cc3)c(-c3ccc(Cl)cc3Cl)n2)CC1 (centres unmarked) [Compound 167]
> 10 | 93.9 | 204 ± 78.1 | – | – | O=C(Cn1nc(-c2ccc(Cl)cc2)c(-c2ccc(Cl)cc2Cl)n1)NCc1ccccc1 [Compound 168]
> 10 | – | 25.7 ± 2.9 | – | – | O=C(Cn1nc(-c2ccc(Cl)cc2Cl)c(-c2ccc(Cl)cc2Cl)n1)NCc1cccc(F)c1 [Compound 170]
> 10 | – | 11.6 ± 3.4 | – | – | O=C(Cn1nc(-c2ccc(Cl)cc2Cl)c(-c2ccc(Cl)cc2Cl)n1)NCc1ccc(F)cc1 [Compound 171]
– | – | 19.3 ± 3.5 | – | – | O=C(Cn1nc(-c2ccc(Cl)cc2Cl)c(-c2ccc(Cl)cc2Cl)n1)NCc1ccccc1F [Compound 173]
> 10 | – | 22 ± 6.1 | – | – | O=C(Cn1nc(-c2ccc(Cl)cc2Cl)c(-c2ccc(Cl)cc2Cl)n1)NCc1cc(F)ccc1F [Compound 184]
> 10 | – | 51.7 ± 15.5 | – | – | Cc1cccc(CNC(=O)Cn2nc(-c3ccc(Cl)cc3Cl)c(-c3ccc(Cl)cc3Cl)n2)c1 [Compound 188]
> 10 | – | 45.9 ± 18.4 | – | – | O=C(Cn1nc(-c2ccc(Cl)cc2Cl)c(-c2ccc(Cl)cc2Cl)n1)NCc1ccc(F)cc1F [Compound 190]
> 10 | – | 48.9 ± 12 | – | – | O=C(Cn1nc(-c2ccc(Cl)cc2Cl)c(-c2ccc(Cl)cc2Cl)n1)NCc1ccccc1Cl [Compound 191]
> 10 | – | 64.8 ± 10.5 | – | – | O=C(Cn1nc(-c2ccc(Cl)cc2Cl)c(-c2ccc(Cl)cc2Cl)n1)NCc1ccc(Cl)cc1 [Compound 192]
> 10 | – | 125 ± 23.1 | – | – | COc1ccccc1CNC(=O)Cn1nc(-c2ccc(Cl)cc2Cl)c(-c2ccc(Cl)cc2Cl)n1 [Compound 196]
> 10 | – | 82.9 ± 7 | – | – | O=C(Cn1nc(-c2ccc(Cl)cc2Cl)c(-c2ccc(Cl)cc2Cl)n1)NCc1ccc(F)c(F)c1 [Compound 198]
> 10 | – | 48 ± 11.1 | – | – | CC(NC(=O)Cn1nc(-c2ccc(Cl)cc2Cl)c(-c2ccc(Cl)cc2Cl)n1)c1ccccc1 (centres unmarked) [Compound 202]
